Test results reported in publication PMC9043233, “Newly synthesised oxime and lactone derivatives from Dipterocarpus alatus dipterocarpol as anti-diabetic inhibitors: experimental bioassay-based evidence and theoretical computation-based prediction” (RSC Advances, 2021).
“Also recorded” adds a separate entry of the source.

Columns and labels:
α-glucosidase = α-glucosidase (Saccharomyces cerevisiae, UniProt P53341); type: biochemical
Experimental: The bioassay was carried out on 96 well-plates (200 μL per well). A solution of the test samples in 10% dimethyl sulfoxide (DMSO) was diluted further to concentrations of 1024, 256, 64, 16, 4, and 1 μg mL^−1. Each concentration of the test samples (10 μL) was incubated at 37 °C with phosphate buffer 100 mM (pH 6.8, 40 μL), α-glucosidase 0.4 U mL^−1 (25 μL), and p-nitrophenyl α-D-glucopyranoside 2.5 mM (25 μL). The reaction was stopped after 30 min by adding 100 μL of 0.1 M Na2CO3. The enzyme activities were measured based on the absorbance at λmax 405 nm of the test samples. […] Percentage inhibition was calculated as follows:[38]α-Glucosidase inhibition (%) = [Abs(control) − Abs(sample)]/Abs(control) × 100%

Sequence of α-glucosidase (P53341 whole entry): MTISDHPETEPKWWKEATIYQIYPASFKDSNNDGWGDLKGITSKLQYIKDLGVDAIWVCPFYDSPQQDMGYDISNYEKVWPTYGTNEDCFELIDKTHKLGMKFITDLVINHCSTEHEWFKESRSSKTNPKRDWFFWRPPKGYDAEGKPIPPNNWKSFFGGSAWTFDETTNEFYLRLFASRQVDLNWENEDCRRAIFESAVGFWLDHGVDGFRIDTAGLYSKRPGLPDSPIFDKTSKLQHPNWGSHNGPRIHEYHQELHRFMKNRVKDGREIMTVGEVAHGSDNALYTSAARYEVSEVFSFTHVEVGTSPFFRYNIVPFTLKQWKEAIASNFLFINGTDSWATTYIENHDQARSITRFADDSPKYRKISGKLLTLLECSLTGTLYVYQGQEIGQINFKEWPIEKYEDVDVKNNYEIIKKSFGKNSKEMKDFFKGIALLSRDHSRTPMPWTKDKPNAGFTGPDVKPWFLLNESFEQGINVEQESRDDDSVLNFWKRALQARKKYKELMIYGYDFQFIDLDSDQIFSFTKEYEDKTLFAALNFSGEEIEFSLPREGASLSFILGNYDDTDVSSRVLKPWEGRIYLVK

Row | melting point [°C] | Compound | α-glucosidase inhibition, result in words (α-glucosidase)
1 | 248 to 249 | CC(=O)O[C@H]1CC[C@@]2(C)C(CC[C@]3(C)C2CCC2[C@@H]([C@@]4(C)CCC(=O)O4)CC[C@]23C)C1(C)C (stereo partly drawn) [Compound 6a, 17-[(5α-methyl)-3,4H-furane-2-one]-3β-(O-acetyl)-25,26,27-tris-nor-dammarane] | 
2 | 236 to 238 | CC1(C)C2CC[C@]3(C)C(CCC4[C@@H]([C@@]5(C)CCC(=O)O5)CC[C@]43C)[C@@]2(C)CC[C@@H]1OC(=O)/C=C/c1ccccc1 (stereo partly drawn) [Compound 6e, 17-[(5α-methyl)-3,4H-furane-2-one]-3β-(O-cinnamoyl)-25,26,27-tris-nor-dammarane] | 
3 |  | CC(C)=CCCC(C)(O)C1CCC2(C)C1CCC1C3(C)CCC(=NOC(=O)c4cnc(C)cn4)C(C)(C)C3CCC12C [Compound 3a, 20(S)-hydroxy dammar-24-ene-3-oximyl-[5-methyl-3,6-diazine-1-carboxylate]] | no inhibition activity; also recorded: unnoticeable inhibition
4 |  | CC(C)=CCCC(C)(O)C1CCC2(C)C1CCC1C3(C)CCC(=NOC(=O)c4cc(I)cc(I)c4O)C(C)(C)C3CCC12C [Compound 3d, 20(S)-hydroxydammar-24-ene-3-oximyl-[2-hydroxy-3,5-diiodobenzoate]] | loss of their activity; also recorded: no inhibition activity
5 | 186 to 187 | CC1(C)C2CC[C@]3(C)C(CCC4[C@@H]([C@@]5(C)CCC(=O)O5)CC[C@]43C)[C@@]2(C)CC[C@@H]1OC(=O)c1ccccc1O (stereo partly drawn) [Compound 6d, 17-[(5α-methyl)-3,4H-furane-2-one]-3β-(O-salycyloyl)-25,26,27-tris-nor-dammarane] | 
6 |  | CC(C)=CCC[C@](C)(O)[C@H]1CC[C@]2(C)[C@@H]1CC[C@@H]1[C@@]3(C)CCC(=O)C(C)(C)[C@@H]3CC[C@]12C [Compound 1, dipterocarpol] | weak activity
7 | 134 to 135 | CCCCC(=O)O[C@H]1CC[C@@]2(C)C(CC[C@]3(C)C2CCC2[C@@H]([C@@]4(C)CCC(=O)O4)CC[C@]23C)C1(C)C (stereo partly drawn) [Compound 6b, 17-[(5α-methyl)-3,4H-furane-2-one]-3β-(O-pentanoyl)-25,26,27-tris-nor-dammarane] | 
8 |  | CC(C)=CCCC(C)(O)C1CCC2(C)C1CCC1C3(C)CCC(=NOC(=O)C(C)C)C(C)(C)C3CCC12C [Compound 3m, 20(S)-hydroxydammar-24-ene-3-oximyl isobutyrate] | no inhibition activity; also recorded: unnoticeable inhibition
9 | 195 to 196 | CC1(C)C2CC[C@]3(C)C(CCC4[C@@H]([C@@]5(C)CCC(=O)O5)CC[C@]43C)[C@@]2(C)CC[C@@H]1O (stereo partly drawn) [Compound 5, 3β-hydroxy-17-[(5α-methyl)-3,4H-furane-2-one]-25,26,27-tris-nor-dammarane] | 
10 |  | CC(C)=CCCC(C)(O)C1CCC2(C)C1CCC1C3(C)CCC(=NOC(=O)c4ccc(F)cc4)C(C)(C)C3CCC12C [Compound 3g, 20(S)-hydroxydammar-24-ene-3-oximyl-[4-fluorobenzoate]] | no α-glucosidase inhibition; also recorded: no inhibition activity; also recorded: unnoticeable inhibition
11 |  | CC(C)=CCCC(C)(O)C1CCC2(C)C1CCC1C3(C)CCC(=NOC(=O)c4ccccc4I)C(C)(C)C3CCC12C [Compound 3h, 20(S)-hydroxydammar-24-ene-3-oximyl-[2-iodobenzoate]] | loss of their activity; also recorded: no inhibition activity; also recorded: unnoticeable inhibition
12 | 206 to 207 | CC(C)C(=O)O[C@H]1CC[C@@]2(C)C(CC[C@]3(C)C2CCC2[C@@H]([C@@]4(C)CCC(=O)O4)CC[C@]23C)C1(C)C (stereo partly drawn) [Compound 6c, 17-[(5α-methyl)-3,4H-furane-2-one]-3β-(O-isobutyryl)-25,26,27-tris-nor-dammarane] | 

Row | Compound | melting point [°C] | α-glucosidase inhibition, result in words (α-glucosidase)
13 | CC1(C)C(=O)CC[C@@]2(C)C1CC[C@]1(C)C2CCC2[C@@H]([C@@]3(C)CCC(=O)O3)CC[C@]21C (stereo partly drawn) [Compound 4, 17-[(5α-methyl)-3,4H-furane-2-one]-25,26,27-tris-nor-dammar-3-one] | 118.4 to 120.3 | no inhibition activity; also recorded: unnoticeable inhibition
